The values below come from patent US20100209508A1, “Substituted Phenylphosphates as Mutual Prodrugs of Steroids and ß-Agonists for the Treatment of Title Pulmonary Inflammation and Bronchoconstriction” (CORUS PHARMA, INC., priority 2005, published 2010).

The subject of one data set is TNF-α. Nature of the data set: TNF-α secretion (h) (PBMC). It is filed as cell-based, human. The conditions noted are these: LPS (1 μg/ml), 24 h/37° C., EIA, "Not active" = less than 25% inhibition at highest tested concentration 1000 nM; for IC50: read-out: TNF-α secretion IC50.
In data set [1] the test system is splenic lymphocytes isolated from C57BL/6 mice and CBA mice. Nature of the data set: Immunosuppression ([3H]TMD incorporation in mouse splenic lymphocytes). It is filed as cell-based. Particulars: "Not active" = less than 25% inhibition at 1000 nM.
The next data set deals with IL-1β. The data set is described as follows: IL-1β secretion (h) (PBMC). The data set is classed as cell-based. Particulars: Homo sapiens, LPS (1 μg/ml), 24 h/37° C., EIA.
For the next data set, the system named is cytokine release. The data set is described as follows: Panel of standard cell-based in vitro assays evaluating cytokine release inhibition. The conditions noted are these: prodrugs compared to the steroid drugs (Examples 27 and 62, respectively). As to the method:
The selected compounds of the invention were tested in a panel of standard, cell-based in vitro assays evaluating the cytokine release inhibition and thus the anti-inflammatory activity of a test article. Several potent steroid analogs were identified, namely compounds described in Examples 23, 27, 43, 59 and 62. […] Therefore by masking the pharmacological properties of a respective steroid the mutual prodrug mitigates the oropharyngeal side effects and confines the antiinflammatory activity of a steroid to the endobronchial space, where the lung enzymes (specifically alkaline phosphatase) release the pharmacologically active steroid (see Examples 141-143).

The next data set deals with alkaline phosphatase. The data set is described as follows: Conversion of mutual prodrugs after exposure to alkaline phosphatase (ALP experiment).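 As to all read-outs here: mutual prodrug and its released products quantified by LCMS over time in buffer with alkaline phosphatase, compared against enzyme-free control buffer, incubations running 25–50 hours.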 Particulars: for Steroid 13 Concentration / Salmeterol Concentration: mutual prodrug 16 + alkaline phosphatase.
Where [2] appears, read: read-out: Immunosuppresion IC50, mouse splenic lymphocytes, 72 h/37° C., [3H]TMD incorporation.
Where [3] appears, read: Mus musculus, Splenic lymphocyte, read-out: Immunosuppresion IC50, mouse splenic lymphocytes, 72 h/37° C., [3H]TMD incorporation.

Like-named read-outs stand apart in the source and are kept apart here.

Procedure for alkaline phosphatase: Reaction and control solutions were prepared by adding a 500 μL aliquot of a ˜200 ng/μl solution in 1:1 acetonitrile/water of and the compound 16 (or alternatively 17) to 500 μl of a pH 7.4 buffer solution, containing 5 mM tris(hydroxymethyl)aminomethane, 1 mM ZnCl2, 1 mM MgCl2. For the reaction solutions, the buffer also contained approximately 600 ng/μl of alkaline phosphatase (Sigma-Aldrich) whereas the control buffer solutions contained no enzyme. The reaction and control solutions were incubated at 37° C. for 25 to 50 hours. The solutions were analyzed periodically for the respective mutual prodrug and reaction products by LCMS.
The concentration of the alkaline phosphatase in the reaction buffer was ˜600 ng/μL (the enzyme activity of the solution was not determined).
The concentration of the alkaline phosphatase in the buffer added to the stock solution was ˜600 ng/μl (the enzyme activity of the solution was not determined).

As to `C[C@]12C=CC(=O)C=C1CC[C@H]1[C@@H]3C[C@H]4OC(c5cccnc5)O[C@@]4(C(=O)CO)[C@@]3(C)C[C@H](O)[C@@]12F` (single isomer, unassigned) [Example 22R-epimer], the figures for the IC50 (with TNF-α; in data set [1] (setting [2])) were 12 nM and 0.89 nM, respectively.
With `C[C@]12C=CC(=O)C=C1CC[C@H]1[C@@H]3C[C@H]4OC(c5cccnc5)O[C@@]4(C(=O)CO)[C@@]3(C)C[C@H](O)[C@@]12F` (single isomer, unassigned) [Example 22S-epimer], the IC50 in the data set on TNF-α was more than 1000 nM; in data set [1] (setting [2]), 36 nM.
Regarding `C[C@]12C=CC(=O)C=C1CC[C@@H]1[C@@H]2[C@@H](O)C[C@@]2(C)[C@H]1C[C@H]1O[C@@H](C3CCCCC3)O[C@]12C(=O)CO` [Example 22, 16,17-[(Cyclohexylmethylene)bis(oxy)]-11,21-dihydroxypregna-1,4-diene-3,20-dione[11β,16α(R)]], the IC50 was determined as 12 nM in the data set on TNF-α (Homo sapiens, 24 h); 2.1 nM in the data set on IL-1β; 1.5 nM in data set [1] (setting [3]).
As for `C[C@]12C=CC(=O)C=C1CC[C@H]1[C@@H]3C[C@H]4O[C@@H](C5CCCCC5)O[C@@]4(C(=O)CO)[C@@]3(C)C[C@H](O)[C@@]12F` [Example 23, 16,17-[(Cyclohexylmethylene)bis(oxy)]-9-fluoro-11,21-dihydroxypregna-1,4-diene-3,20-dione[11β,16α(R)]], the IC50 in the data set on TNF-α (Homo sapiens, 24 h) came to 1.2 nM; in data set [1] (setting [3]), 0.34 nM. For the same compound, in the data set with cytokine release, the “anti-inflammatory activity (cytokine release inhibition), assessment in words” value is “potent”.
Take `CN1CCN(CC(=O)[C@@]23O[C@H](C4CCCCC4)O[C@@H]2C[C@H]2[C@@H]4CCC5=CC(=O)C=C[C@]5(C)[C@H]4[C@@H](O)C[C@@]23C)CC1` [Example 26, 16,17-[(Cyclohexylmethylene)bis(oxy)]-11-hydroxy-21-(4-methylpiperazyn-1-yl)-pregna-1,4-diene-3,20-dione[11β,16α(R)]]: the “TNF-α secretion IC50” value in the data set on TNF-α was “Not active”. Besides, the IC50 with IL-1β is more than 1000 nM; in data set [1] (setting [3]), 31 nM.
For the compound `CN1CCN(CC(=O)[C@@]23O[C@H](C4CCCCC4)O[C@@H]2C[C@H]2[C@@H]4CCC5=CC(=O)C=C[C@]5(C)[C@@]4(F)[C@@H](O)C[C@@]23C)CC1` [Example 27, 16,17-[(Cyclohexylmethylene)bis(oxy)]-9-fluoro-11-hydroxy-21-(4-methylpiperazyn-1-yl)-pregna-1,4-diene-3,20-dione[11β,16α(R)]], the “TNF-α secretion IC50” value with TNF-α is recorded as “Not active”. In addition, the IC50 amounted to 36 nM with IL-1β and 12 nM in data set [1] (setting [3]). In addition, the “anti-inflammatory activity (cytokine release inhibition), assessment in words” value in the data set with cytokine release is on record as “potent”. Moreover, the “Steroid 13 Concentration” value was 0.0 nmol/mL in the data set with alkaline phosphatase (0.00 Hours @ 37° C.); 1.6 nmol/mL in the data set on alkaline phosphatase (0.59 Hours @ 37° C.); 4.1 nmol/mL with alkaline phosphatase (1.19 Hours @ 37° C.); 15.3 nmol/mL in the data set with alkaline phosphatase (2.96 Hours @ 37° C.); 20.2 nmol/mL in the data set with alkaline phosphatase (3.56 Hours @ 37° C.); 21.6 nmol/mL in the data set on alkaline phosphatase (4.15 Hours @ 37° C.). Besides, the “Steroid 13 Concentration” value with alkaline phosphatase (10.67 Hours @ 37° C.) was determined as 49.5 nmol/mL; with alkaline phosphatase (15.41 Hours @ 37° C.) it was 54.6 nmol/mL; in the data set with alkaline phosphatase (19.56 Hours @ 37° C.) it was 62.9 nmol/mL; with alkaline phosphatase (24.30 Hours @ 37° C.), 67.3 nmol/mL; with alkaline phosphatase (30.82 Hours @ 37° C.), 69.3 nmol/mL; in the data set on alkaline phosphatase (34.97 Hours @ 37° C.), 66.5 nmol/mL.
As to `C[C@]12C=CC(=O)C=C1CC[C@H]1[C@@H]3C[C@H]4O[C@@H](C5CCCCC5)O[C@@]4(C(=O)CN4CCOCC4)[C@@]3(C)C[C@H](O)[C@@]12F` [Example 34, 16,17-[(Cyclohexylmethylene)bis(oxy)]-9-fluoro-11-hydroxy-21-(4-morpholin-1-yl)-pregna-1,4-diene-3,20-dione[11β,16α(R)]], the IC50 is more than 1000 nM in the data set on TNF-α (Homo sapiens, 24 h) and 20 nM in data set [1] (setting [3]).
Take `C[C@]12C=CC(=O)C=C1CC[C@H]1[C@@H]3C[C@H]4O[C@@H](C5CCCCC5)O[C@@]4(C(=O)CN4CCC4)[C@@]3(C)C[C@H](O)[C@@]12F` [Example 43, 16,17-[(Cyclohexylmethylene)bis(oxy)]-9-fluoro-11-hydroxy-21-(azetidin-1-yl)-pregna-1,4-diene-3,20-dione[11β,16α(R)]]: the IC50 in the data set on TNF-α (Homo sapiens, 24 h) is more than 1000 nM; in data set [1] (setting [3]), 8.8 nM. The “anti-inflammatory activity (cytokine release inhibition), assessment in words” value in the data set with cytokine release is “potent”.
Consider `C[C@]12C=CC(=O)C=C1CC[C@H]1[C@@H]3C[C@H]4O[C@@H](C5CCCCC5)O[C@@]4(C(=O)Cn4ccnc4)[C@@]3(C)C[C@H](O)[C@@]12F` [Example 45, 16,17-[(Cyclohexylmethylene)bis(oxy)]-9-fluoro-11-hydroxy-21-(imidazol-1-yl)-pregna-1,4-diene-3,20-dione[11β,16α(R)]], for which the “TNF-α secretion IC50” value in the data set on TNF-α is “Not active”. In addition, the IC50 in data set [1] (setting [3]) is more than 1000 nM.
Taken in the same sequence, the figures for `C[C@]12C=CC(=O)C=C1CC[C@H]1[C@@H]3C[C@H]4O[C@@H](C5CCCCC5)O[C@@]4(C(=O)CSc4ccncc4)[C@@]3(C)C[C@H](O)[C@@]12F` [Example 47, 16,17-[(Cyclohexylmethylene)bis(oxy)]-9-fluoro-11-hydroxy-21-(pyridin-4-yl-thio)-pregna-1,4-diene-3,20-dione[11β,16α(R)]] were “Not active” and 66 nM.
For the compound `CN1CCC(C2O[C@@H]3C[C@H]4[C@@H]5CCC6=CC(=O)C=C[C@]6(C)[C@H]5[C@@H](O)C[C@]4(C)[C@]3(C(=O)CO)O2)CC1` (stereo partly drawn) [Example 56, 16,17-[(1-Methylpiperidyl-4-methylene)bis(oxy)]-11,21-dihydroxypregna-1,4-diene-3,20-dione[11β,16α]], the “TNF-α secretion IC50” value in the data set on TNF-α is listed as “Not active”. Further, in the data set on IL-1β, the IC50 is more than 1000 nM. Further, the “Immunosuppresion IC50” value in data set [1] (mouse splenic lymphocytes, 72 h/37° C., [3H]TMD incorporation) was “Not active”.
With `CN1CCC(C2O[C@@H]3C[C@H]4[C@@H]5CCC6=CC(=O)C=C[C@]6(C)[C@@]5(F)[C@@H](O)C[C@]4(C)[C@]3(C(=O)CO)O2)CC1` (stereo partly drawn) [Example 57, 16,17-[(1-Methylpiperidyl-4-methylene)bis(oxy)]-9-fluoro-11,21-dihydroxypregna-1,4-diene-3,20-dione[11β,16α]], the “TNF-α secretion IC50” value in the data set with TNF-α is on record as “Not active”. Moreover, the IC50 (in the data set on IL-1β; in data set [1] (setting [3])) was more than 1000 nM throughout.
Take `C[C@]12C=CC(=O)C=C1CC[C@@H]1[C@@H]2[C@@H](O)C[C@@]2(C)[C@H]1C[C@H]1OC(c3cccnc3)O[C@]12C(=O)CO` (stereo partly shown) [Example 59]: the IC50 with TNF-α (Homo sapiens, 24 h) is 85 nM; in data set [1] (setting [3]), 2 nM. The “anti-inflammatory activity (cytokine release inhibition), assessment in words” value in the data set with cytokine release is “potent”.
With `C[C@]12C=CC(=O)C=C1CC[C@H]1[C@@H]3C[C@H]4OC(c5cccnc5)O[C@@]4(C(=O)CO)[C@@]3(C)C[C@H](O)[C@@]12F` (stereo partly shown) [Example 62], the IC50 was found to be 11 nM in the data set with TNF-α, 350 nM in the data set on IL-1β and 1.9 nM in data set [1] (setting [2]). Further, in the data set on cytokine release, the “anti-inflammatory activity (cytokine release inhibition), assessment in words” value is “potent”. Further, the “Steroid 14 Concentration” value with alkaline phosphatase (mutual prodrug 17 + alkaline phosphatase, 2.10 Hours @ 37° C.) came out at 22.6 nmol/mL.
With `OCc1cc(C(O)CNCCCCCCOCCCCc2ccccc2)ccc1O` (stereo not shown) [Salmeterol, salmeterol, reference compound], the “Salmeterol Concentration” value in the data set with alkaline phosphatase (0.00 Hours @ 37° C.) was 0.1 nmol/mL; with alkaline phosphatase (0.59 Hours @ 37° C.), 1.8 nmol/mL; in the data set on alkaline phosphatase (1.19 Hours @ 37° C.), 4.4 nmol/mL; with alkaline phosphatase (2.96 Hours @ 37° C.) it was 12.3 nmol/mL; in the data set on alkaline phosphatase (3.56 Hours @ 37° C.), 14.4 nmol/mL; with alkaline phosphatase (4.15 Hours @ 37° C.), 17.1 nmol/mL. The “Salmeterol Concentration” value with alkaline phosphatase (10.67 Hours @ 37° C.) came to 34.2 nmol/mL; with alkaline phosphatase (15.41 Hours @ 37° C.), 41.4 nmol/mL; in the data set with alkaline phosphatase (19.56 Hours @ 37° C.), 44.8 nmol/mL; with alkaline phosphatase (24.30 Hours @ 37° C.), 46.9 nmol/mL; in the data set on alkaline phosphatase (30.82 Hours @ 37° C.), 48.1 nmol/mL; in the data set with alkaline phosphatase (34.97 Hours @ 37° C.), 49.6 nmol/mL.
